Publication PMC11063903, “Engineering a human P2X2 receptor with altered ligand selectivity in yeast” (The Journal of Biological Chemistry, 2024)
Changes are numbered by the printed parent chain.

What was measured:
Type in all cases: cell-based
[1] = molecular target: T1, P2X2 R302 glutamine (R302Q) (Homo sapiens, UniProt Q9UBL9, R302Q); assay: Site-saturation screen of ligand-binding domain with ATP, R302 glutamine; conditions: 500 μM ATP, ± sd
T1 construct: expressed in transfected cells; host or cells: S. cerevisiae BY4741 background
T1 sequence (Q9UBL9 whole entry R302Q, the tested form may be a part): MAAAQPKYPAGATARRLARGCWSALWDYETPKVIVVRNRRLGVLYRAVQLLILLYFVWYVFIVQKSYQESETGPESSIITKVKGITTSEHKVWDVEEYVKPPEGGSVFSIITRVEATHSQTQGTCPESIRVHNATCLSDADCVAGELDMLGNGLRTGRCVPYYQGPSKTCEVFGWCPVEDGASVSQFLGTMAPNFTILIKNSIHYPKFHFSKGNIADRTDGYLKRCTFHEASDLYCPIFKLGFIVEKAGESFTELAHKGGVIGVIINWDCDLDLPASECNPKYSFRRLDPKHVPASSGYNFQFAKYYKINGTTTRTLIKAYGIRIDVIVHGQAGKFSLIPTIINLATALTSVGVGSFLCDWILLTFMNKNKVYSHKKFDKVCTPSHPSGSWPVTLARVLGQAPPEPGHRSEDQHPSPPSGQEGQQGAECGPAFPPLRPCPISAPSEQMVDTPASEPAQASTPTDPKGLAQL
Text: The yeast P2X2 screening platform poses an opportunity to probe the structure-function of the ligand-binding domain in detail. The conserved P2X “NFR” motif at residues 300 to 302 is directly involved in bonding to the ATP triphosphate moiety ([41]), so we mutagenized residues at or near this motif (298–304), ultimately covering 133 variants (7 sites, 19 residues each). […] We compared our results to phylogenetic data based on a multiple sequence alignment (MSA) from a curated set of 419 related P2X homologs (Figs. 3B, and S5; Table S1).
Figure 3 Structure-function analysis of the ligand binding domain.A, heat map summarizing the screening data of ATP with seven site-saturation libraries surrounding the NFR-motif. B, sequence-logo plot of the mutagenized residues and percent identity scores as determined from MSA. C, homology model of P2X2 colored by sequence conservation as calculated from a multiple sequence alignment of 419 related P2X genes. Conservation is scored on a log scale where maroon is more conserved and blue is less conserved. D, ATP in the ligand-binding pocket of P2X2. […]
GCaMP assays were performed as follows. […] Cells were loaded onto a black, clear bottom microplate and imaged on a FlexStation3 plate reader. […] Fluorescence was measured with an excitation at 485 nm, and emission 525 nm. […] For strains with mScarlet, fluorescence was read with excitation 570 nm/emission 610 nm. […]

P2X2 F303Y = molecular target: T2, P2X2 F303Y (Homo sapiens, UniProt Q9UBL9, F303Y); assay: Fast GCaMP-mScarletI assay in yeast, P2X2 F303Y; conditions: site-saturation screen, 500 μM ATP, ± sd
T2 construct: expressed in transfected cells; host or cells: S. cerevisiae BY4741 background
T2 sequence (Q9UBL9 1-471 F303Y): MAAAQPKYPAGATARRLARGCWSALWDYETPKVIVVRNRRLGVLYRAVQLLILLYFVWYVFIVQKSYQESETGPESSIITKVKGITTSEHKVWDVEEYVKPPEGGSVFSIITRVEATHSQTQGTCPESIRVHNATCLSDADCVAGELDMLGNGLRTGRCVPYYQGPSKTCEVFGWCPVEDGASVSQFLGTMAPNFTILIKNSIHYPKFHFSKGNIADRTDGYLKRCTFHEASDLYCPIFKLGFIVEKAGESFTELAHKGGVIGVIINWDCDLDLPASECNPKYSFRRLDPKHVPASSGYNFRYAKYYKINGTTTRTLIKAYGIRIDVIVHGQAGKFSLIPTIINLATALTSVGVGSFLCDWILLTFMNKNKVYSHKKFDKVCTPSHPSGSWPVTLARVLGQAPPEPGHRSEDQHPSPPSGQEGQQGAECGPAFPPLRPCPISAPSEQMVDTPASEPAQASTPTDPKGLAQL

human P2X2 receptor = molecular target: T3, human P2X2 receptor (Homo sapiens, UniProt Q9UBL9); assay: GCaMP calcium assay of P2X2 expressed in yeast S. cerevisiae, agonist response
T3 construct: expressed in transfected cells; host or cells: S. cerevisiae BY4741 background, P2X2 genome-integrated under a galactose-inducible promoter
T3 sequence (Q9UBL9 1-471): T2 sequence (Q9UBL9 1-471 F303Y) with Y303F
Text: Although P2X receptors are expressed in many eukaryotic organisms including some fungi ([24]), they are not present in S. cerevisiae. For recombinant expression to yield functional P2X channels, receptor proteins must be correctly folded, assembled into trimers, and efficiently trafficked to the plasma membrane. To assess whether P2X ion channels could functionally gate in S. cerevisiae the canonical isoforms of P2X1-7 were co-expressed with aequorin, a calcium-activated photoprotein from the jellyfish Aequorea victoria.
Genetic knockouts of the calnexin homolog (ΔCne1p) and vacuolar calcium transporter (Δ Vcx1p) (n = 3) were compared to the WT yeast strain (n = 2). […] Statistical analysis was performed using one-way ANOVA with Dunnett’s multiple comparisons test where ∗∗ is p ≤ 0.01. […] Yeast were injected with ATP at 21 s and onset rates from the last six points (40–48 s) were used for calculating the dose response in (D). E and F, kinetic and dose–response measurements of P2X2 with the GCaMP reporter with ATP (n = 4), partial agonist BzATP (n = 3), and agonist 2-chloro-ATP (n = 4). Figures (D and F) share the figure legend with (C). […] Suramin was pre-equilibrated with P2X2-yeast for 10 min and 5 μM ATP was injected.
To expand the assay throughput to accommodate several 96-well plates at a time, we required the acquisition of short-duration signals. Since GCaMP signals are typically measured in terms of ΔF/F0, where ΔF is Fmax-Fmin, and since the signal takes several minutes to reach Fmax, we instead attempted to correlate the rate of signal onset (rather than its amplitude) with channel activity.
Having optimized our yeast strains and assay throughput, we sought to further validate the function of human P2X2 in the yeast host.
GCaMP assays were performed as follows. P2X2 GCaMP strains were designed with a bi-cistronic reporter, in which the GCaMP protein was followed by a 2A peptide and a mScarletI reporter ([53]). The co-translated mScarletI was designed to act as a control for plasmid loss, GCaMP breakage via nonsense mutation, and contamination. […] P2X2-GCaMP strains were cultured and induced as previously described. Samples were induced for 24 h to allow for the accumulation of the mature GCaMP protein. Cells were washed three times in 0.1 M MES/Tris buffer and resuspended with MES/Tris with supplemental calcium. Cells were loaded onto a black, clear bottom microplate and imaged on a FlexStation3 plate reader. Samples were imaged in “flex” mode. Samples were imaged for 48 s at an interval of 1.6 s. Fluorescence was measured with an excitation at 485 nm, and emission 525 nm. At the 21 s mark, 100 μl ligand solution was transferred to the cells. For strains with mScarlet, fluorescence was read with excitation 570 nm/emission 610 nm. Slopes were calculated from the last 6 points of measurement and were normalized to the positive control samples. Any replicate in which the mScarlet value was measured to be over 2 standard deviations less than the mean for that set was discarded from further analysis.

Nc1ncnc2c1ncn2[C@@H]1O[C@H](COP(=O)(O)OP(=O)(O)OP(=O)(O)O)[C@@H](O)[C@H]1O [ATP] was tested, and the “signal, % of WT signaling” value [1] was 25 ± 28%, the “signal, % of WT signaling” value (P2X2 F303Y) was 113 ± 45% and the “maximum fluorescence compared to a negative control receptor” value (human P2X2 receptor; GCaMP strain, saturating (500 μM) ATP, vs K81C K83C P2X2) was 12 fold. The “pEC50 (signaling onset rate ΔF/ΔT)” value (human P2X2 receptor; rapid GCaMP assay format, yeast, Fig. 1D) was 5.88 ± 0.056 and the EC50 (human P2X2 receptor; rapid GCaMP assay format, yeast, Fig. 1D, read-out: EC50 (signaling onset rate ΔF/ΔT)) was 1300 nM.
